Experimental findings from patent US8153781B2, “Dendrimer conjugates of agonists and antagonists of the GPCR superfamily” (The United States of America as represented by the …, priority 2007, dated 2012) are described below.

Each structure is given as a SMILES string.

Assay [1] has as its target T1, hA2A AR (Homo sapiens, UniProt P29274).
Assay [2] addresses T1, hA2A AR. Briefly: Radioligand membrane binding assay, A2A AR. On the set-up: expressed in transfected cells. Particulars: for Ki: Table 3, expressed in CHO cells. The protocol:
(§1) Radioligand Membrane Binding Experiments. Radioligand binding assays were performed for A1, A2A, and A3 ARs. Each tube in the binding assay contained 100 μL of membrane suspension (20 μg of protein), 50 μL of agonist radioligand, and 50 μL of increasing concentrations of the test ligands in Tris-HCl buffer (50 mM, pH 7.5) containing 10 mM MgCl2. Nonspecific binding was determined using […] 5′-N-ethylcarboxamidoadenosine diluted with the buffer. The mixtures were incubated at 25° C. for 60 min. Binding reactions were terminated by filtration through Whatman GF/B filters under a reduced pressure using a MT-24 cell harvester (Brandell, Gaithersburg, Md.). Filters were washed three times with 5 mL of 50 mM ice-cold Tris-HCl buffer (pH 7.5). […] After the filters were washed, the radioactivity was measured using a Beckman γ-counter. For the A1 and A2A assays, the radioactive agonists [^3H] N^6-chlorocyclopentyladenosine and [^3H] 2-(4-(2-carboxyethyl)phenylethylamino)-5′-N-ethylcaboxamido-adenosine were used, respectively. After the filters were washed, they were placed in scintillation vials containing 5 mL of Hydrofluor scintillation buffer and counted using a Perkin Elmer Liquid Scintillation Analyzer. The Ki value was determined using GraphPad Prism for all assays.

The target of another assay is T2, hA1 AR (Homo sapiens, UniProt P30542).
T2 construct: expressed in transfected cells; host or cells: CHO cells
T2 sequence (P30542 1-326): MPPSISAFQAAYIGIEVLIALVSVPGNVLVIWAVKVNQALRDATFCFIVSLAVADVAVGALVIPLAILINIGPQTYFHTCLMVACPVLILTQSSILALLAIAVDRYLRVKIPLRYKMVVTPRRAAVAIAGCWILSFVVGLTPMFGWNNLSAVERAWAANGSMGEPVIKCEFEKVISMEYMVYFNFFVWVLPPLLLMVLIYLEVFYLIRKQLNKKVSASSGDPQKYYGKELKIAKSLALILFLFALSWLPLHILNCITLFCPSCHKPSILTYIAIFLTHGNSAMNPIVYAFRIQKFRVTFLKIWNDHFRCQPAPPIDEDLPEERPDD
Nature of the assay: Radioligand membrane binding assay, A1 AR. Conditions: Table 3; expressed in CHO cells.

Assay [3] addresses T3, hA3 AR (Homo sapiens, UniProt P0DMS8).
T3 construct: expressed in transfected cells; host or cells: CHO cells
T3 sequence (P0DMS8 1-318): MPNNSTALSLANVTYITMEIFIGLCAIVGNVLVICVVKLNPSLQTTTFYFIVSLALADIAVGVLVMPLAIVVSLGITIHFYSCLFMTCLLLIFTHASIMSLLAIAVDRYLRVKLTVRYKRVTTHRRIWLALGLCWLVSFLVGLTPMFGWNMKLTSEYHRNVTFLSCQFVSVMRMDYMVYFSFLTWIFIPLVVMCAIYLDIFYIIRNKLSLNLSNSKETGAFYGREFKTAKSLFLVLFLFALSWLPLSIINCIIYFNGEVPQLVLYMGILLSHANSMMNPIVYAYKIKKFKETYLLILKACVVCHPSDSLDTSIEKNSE
Briefly: Calcium protocol, CHO cells expressing human A3 receptor. The format is cell-based. As for the experimental part: Calcium Protocol. Chinese Hamster Ovary (CHO) cells stably expressing the human A3 receptor were grown in Dulbecco's Modified Eagle Medium/F12 (Sigma) supplemented with 10% fetal bovine serum, antibiotics, and glutamine. Each assay was completed by passaging the CHO A3 cells into 96 well plates and incubating overnight at 37° C. with 5% CO2. The FLIPR Calcium 4 Kit provided by Molecular Devices was used as described previously (Niebauer). Briefly, the media was removed from the cells, and 30 μl of the Calcium 4 fluorescent dye supplemented with 2.5 mM probenecid was added to each well. The cells were incubated at room temperature for 45 minutes. The compound plate was prepared by diluting the compounds to 10^−5-10^−9 M in Hanks Buffer. Samples were run in duplicate on the Molecular Devices FlexStation I at room temperature. […] Increases in intracellular calcium are reported as the relative fluorescence units after exposure minus the basal fluorescence value before exposure. Each experiment was repeated at least three times.

Assay [4] has as its target T3, hA3 AR. Briefly: Radioligand membrane binding assay, A3 AR. Conditions: Table 3; expressed in CHO cells. As for the experimental part:
as §1

Assay [5] has as its target T1, hA2A AR. Nature of the assay: Functional assay at hA2A AR (Table 3). The class given is cell-based. On the set-up: expressed in transfected cells. Particulars: Table 3 functional assay.
The target in another assay is T4, A2AAR (Homo sapiens, UniProt P29274).
T4 construct: expressed in transfected cells; host or cells: CHO
Nature of the assay: Binding at A2AAR with [3H]CGS21680, HEK cells.

Assay [6] concerns the target T5, A1AR (Homo sapiens, UniProt P30542).
T5 construct: expressed in transfected cells; host or cells: CHO cells
T5 sequence (P30542 1-326): T2 sequence (P30542 1-326)
Briefly: [35S]GTPγS binding, A1AR. The format is biochemical. Particulars: CHO cells expressing A1AR.
Protocol: [^35S]GTPγS binding was measured in 200 μl of buffer containing 50 mM Tris-HCl (pH 7.4), 1 mM EDTA, 1 mM MgCl2, 10 μM GDP, 1 mM dithiothreitol, 100 mM NaCl, 3 units/ml adenosine deaminase, 0.2 nM [^35S]GTPγS, 0.004% CHAPS, 0.5% bovine serum albumin and increasing concentrations of the ligands. Samples were started by addition of the membrane suspension (5-10 μg protein/tube) to the test tubes and incubated at 25° C. for 30 min. The assay was terminated by rapid filtration through Whatman GF/B filters, pre-soaked in 50 mM Tris-HCl (pH 7.4) containing 5 mM MgCl2 and 0.02% CHAPS. Non-specific binding of [^35S] GTPγS was measured in the presence of 10 μM unlabelled GTPγS. After the filters were washed, they were placed in scintillation vials containing 5 mL of Hydrofluor scintillation buffer and counted using a Perkin Elmer Liquid Scintillation Analyzer.

Assay [7] concerns the target T5, A1AR. Briefly: Binding at A1AR with [3H]CCPA, CHO cells.
Assay [8] concerns the target T6, A3 adenosine receptor (Homo sapiens, UniProt P0DMS8).
T6 sequence (P0DMS8 1-318): T3 sequence (P0DMS8 1-318)
Briefly: cAMP inhibition assay, A3 adenosine receptor. The class given is cell-based. Particulars: Table 8. The text has this: (§2) This Example illustrates a preparation and some of the properties of conjugate 117 in accordance with an embodiment of the invention.

Another assay has as its target T7, A1 adenosine receptor (Homo sapiens, UniProt P30542).
T7 sequence (P30542 1-326): T2 sequence (P30542 1-326)
Nature of the assay: cAMP inhibition assay, A1 adenosine receptor. The class given is cell-based. Conditions: Table 8.
From the text: as §2

In assay [9] the target is T6, A3 adenosine receptor. Nature of the assay: Binding assay at A3 adenosine receptor (Table 7). The protocol:
CHO (Chinese hamster ovary) cells expressing the recombinant human ARs were cultured in Dulbecco's modified Eagle medium (DMEM) and F12 (1:1) supplemented with 10% fetal bovine serum, 100 units/mL penicillin, 100 μg/mL streptomycin, and 2 μmol/mL glutamine. After harvesting, cells were homogenized and suspended. Cells were then centrifuged at 500 g for 10 min, and the pellet was resuspended in 50 mM Tris-HCl buffer (pH 7.5) containing 10 mM MgCl2. The suspension was homogenized and was then recentrifuged at 20 000 g for 20 min at 4° C. The resultant pellets were resuspended in Tris buffer, incubated with adenosine deaminase for 30 min at 37° C., and the suspension was stored at −80° C. until the binding experiments. The protein concentration was measured using the Bradford assay.
as §2

T1 sequence (P29274 whole entry): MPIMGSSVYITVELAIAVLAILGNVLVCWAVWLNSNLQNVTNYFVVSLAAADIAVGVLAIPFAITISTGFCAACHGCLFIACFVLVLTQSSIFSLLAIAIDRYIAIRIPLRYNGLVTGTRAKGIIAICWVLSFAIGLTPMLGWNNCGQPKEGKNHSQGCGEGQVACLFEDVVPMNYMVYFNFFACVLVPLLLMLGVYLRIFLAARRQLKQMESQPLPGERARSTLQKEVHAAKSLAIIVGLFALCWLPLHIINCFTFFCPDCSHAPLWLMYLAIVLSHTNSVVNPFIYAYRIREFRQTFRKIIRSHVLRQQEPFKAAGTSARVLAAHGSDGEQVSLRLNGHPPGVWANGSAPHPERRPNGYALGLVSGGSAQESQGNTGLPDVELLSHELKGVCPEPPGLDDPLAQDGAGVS
T4 sequence (P29274 whole entry): as above
Protocol for hA1 AR: Radioligand Membrane Binding Experiments. […] Each tube in the binding assay contained 100 μL of membrane suspension (20 μg of protein), 50 μL of agonist radioligand, and 50 μL of increasing concentrations of the test ligands in Tris-HCl buffer (50 mM, pH 7.5) containing 10 mM MgCl2. Nonspecific binding was determined using 10 mM 5′-N-ethylcarboxamidoadenosine diluted with the buffer. The mixtures were incubated at 25° C. for 60 min. Binding reactions were terminated by filtration through Whatman GF/B filters under a reduced pressure using a MT-24 cell harvester (Brandell, Gaithersburg, Md.). Filters were washed three times with 5 mL of 50 mM ice-cold Tris-HCl buffer (pH 7.5). […] After the filters were washed, the radioactivity was measured using a Beckman γ-counter. For the A1 and A2A assays, the radioactive agonists [^3H] N^6-chlorocyclopentyladenosine and [^3H] […] The Ki value was determined using GraphPad Prism for all assays.

Turning to `CCNC(=O)[C@H]1O[C@@H](n2cnc3c(N)nc(NCCc4ccc(CCC(=O)NCCN)cc4)nc32)[C@H](O)[C@@H]1O` [compound 5, 2-[4-(2-aminoethylaminocarbonylethyl)phenylethylamino]-5′-N-ethylcarboxamidoadenosine], the “hA2A, EC50 (class symbol)” value on hA2A AR [1] is listed as “FA (Full agonist at 10 μM with >90% of effect of NECA)”.

A word on the inhibition: it is the percentage by which the read-out fell short of the control. With `CCNC(=O)[C@H]1OC(n2cnc3c(N)nc(NCCc4ccc(CCC(=O)NCCNC(=S)Nc5ccc(N=C=S)cc5)cc4)nc32)[C@@H](O)C1O` (stereo partly shown) [compound 6], on hA2A AR [2] (read-out: inhibition of binding at the hA2A AR), the inhibition at 10 µM is 58%.

Usually Ki stands for the dissociation constant of the complex between target and ligand, obtained from inhibition or displacement. Lower therefore signals higher affinity. The EC50 is the concentration at which the effect is half-maximal. In the case of `CCNC(=O)[C@H]1OC(n2cnc3c(N)nc(NCCc4ccc(CCC(=O)NCCNC(=S)Nc5ccc(NC(=S)NCCNC(C)=O)cc5)cc4)nc32)[C@@H](O)C1O` (stereo partly shown) [compound 7], the inhibitory constant (Ki) on hA1 AR is 840 ± 100 nM; at hA2A AR [2], 70 nM. Moreover, the half-maximal effective concentration (EC50) on hA3 AR [3] stood at 375 ± 40 nM.

Turning to `CCNC(=O)[C@H]1OC(n2cnc3c(N)nc(NCCc4ccc(CCC(=O)NCCNC(C)=O)cc4)nc32)[C@@H](O)C1O` (stereo partly shown) [compound 16], the inhibition constant (Ki) was determined as 58 ± 24 nM at hA3 AR [4], 984 ± 223 nM on hA1 AR and 110 ± 15 nM at hA2A AR [2]. Also, the half-maximal effective concentration (EC50) at hA2A AR [5] worked out at 51 ± 8 nM; on hA3 AR [3], 725 ± 110 nM.

With `NCCNC(=O)Cc1ccc(NC(=O)Cc2ccc(Nc3ncnc4c3ncn4[C@@H]3O[C@H](CO)[C@@H](O)[C@H]3O)cc2)cc1` [compound 101, N^6-[4-[[[4-[[[(2-Aminoethyl)amino]carbonyl]methyl]-anilino]carbonyl]methyl]phenyl]adenosine, reference compound], the Ki is 370 ± 100 nM at A2AAR and 10.4 ± 3.8 nM on A1AR [7]. The concentration for a half-maximal effect (EC50) at A1AR [6] came to 120 ± 13 nM.

Take `O=C(O)CCc1ccc(NC(=S)NCCNC(=O)Cc2ccc(NC(=O)Cc3ccc(Nc4ncnc5c4ncn5[C@@H]4O[C@H](CO)[C@@H](O)[C@H]4O)cc3)cc2)cc1` [compound 104]: the results for the Ki on A2AAR and on A1AR [7] were 800 ± 360 nM and 30 nM, respectively. Besides, on A1AR [6], the half-maximal effective concentration (EC50) turned out to be 3000 ± 1300 nM.

On to `NCCNCCNC(=O)Cc1ccc(NC(=O)Cc2ccc(Nc3ncnc4c3ncn4[C@@H]3O[C@H](CO)[C@@H](O)[C@H]3O)cc2)cc1` [compound 107, N-(2-Aminoethyl)-ADAC], for which the inhibition constant Ki on A2AAR is 300 ± 20 nM; at A3 adenosine receptor [8] it was 61 nM; on A1AR [7] it was 43 nM; at A1 adenosine receptor, 72 nM; at A3 adenosine receptor [9], 10 ± 2 nM. Besides, at A1AR [6], it took 50 nM to reach a half-maximal effect (EC50).
